These are literature values, as cited in patent US20230175068A1, “PROGNOSIS METHOD OF ACUTE MYELOID LEUKAEMIA” (CENTRE NATIONAL DE LA RECHERCHE SCIENTIFIQUE, priority 2020, published 2023).

The data set has as its system AML cell lines.

Structures are written as SMILES. Where two headings read alike, the source gives them in different places.

In the case of `O=C(c1cc(Cc2n[nH]c(=O)c3ccccc23)ccc1F)N1CCN(C(=O)C2CC2)CC1` [Olaparib], the T-Statistic (Drug sensitivity AUC (Sanger GDSC1)) was -3.795.
As for `O=C1NC(=O)c2c1c(-c1ccccc1Cl)cc1[nH]c3ccc(O)cc3c21` [Wee1 Inhibitor], for the setting “Drug sensitivity AUC (Sanger GDSC2)”, the T-Statistic was -4.966.
